Results reported in ChEMBL document CHEMBL1201862, “PubChem BioAssay data set” (2004).
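Dose response: 5 concentrations. Exposure: 48 h. Format: 96-well plates. Endpoint: linear interpolation; highest concentration if not reached. Abbreviation: GI50, concentration required for 50% inhibition of growth.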 Activity calls are given as the source filed them. No stated cut-off is given here; in the data, active = GI50 up to about 1.1 µM and inactive = higher.

How the values were obtained:
Experiment in all cases: NCI tumour cell line growth inhibition, 48 h
786-0 = system: 786-0
A549 = system: A549
DU-145 = system: DU-145
HCT-116 = system: HCT-116
Hs-578T = system: Hs-578T
KM12 = system: KM12
LOX IMVI = system: LOX IMVI
NCI-H522 = system: NCI-H522
OVCAR-4 = system: OVCAR-4
OVCAR-5 = system: OVCAR-5
PC-3 = system: PC-3
SF-539 = system: SF-539
SK-MEL-2 = system: SK-MEL-2
SK-MEL-5 = system: SK-MEL-5
T47D = system: T47D
U-251 = system: U-251
UO-31 = system: UO-31
K562 = system: K562
MOLT-4 = system: MOLT-4
HCC 2998 = system: HCC 2998

SMILES | GI50 (786-0) | GI50 (A549) | GI50 (DU-145) | GI50 (HCT-116) | GI50 (Hs-578T) | GI50 (KM12) | GI50 (LOX IMVI) | GI50 (NCI-H522) | GI50 (OVCAR-4) | GI50 (OVCAR-5) | GI50 (PC-3) | GI50 (SF-539) | GI50 (SK-MEL-2) | GI50 (SK-MEL-5) | GI50 (T47D) | GI50 (U-251) | GI50 (UO-31) | GI50 (K562) | GI50 (MOLT-4) | GI50 (HCC 2998)
Cc1cc(=O)oc2cc(OCc3c(F)cccc3Cl)ccc12 | 11.6 µM (inactive) | > 100 µM (inactive) | > 100 µM (inactive) | 4.41 µM (inactive) | 21.9 µM (inactive) | 1.99 µM (inactive) | 11.5 µM (inactive) | 11.1 µM (inactive) | 48.4 µM (inactive) | > 100 µM (inactive) | 3.56 µM (inactive) | 11.9 µM (inactive) | 4.55 µM (inactive) | 3.66 µM (inactive) | 2.49 µM (inactive) | 8.85 µM (inactive) | > 100 µM (inactive) | – | – | –
Cc1cc(OCc2nc(N)nc(N)c2-c2ccc(Cl)c(Cl)c2)ccc1[N+](=O)[O-] | 0.104 µM (active) | 0.0352 µM (active) | 0.582 µM (active) | 0.0502 µM (active) | 12.2 µM (inactive) | 0.692 µM (active) | 0.0818 µM (active) | 0.893 µM (active) | 2.19 µM (inactive) | 0.45 µM (active) | 0.467 µM (active) | 0.451 µM (active) | 1.41 µM (inactive) | 0.224 µM (active) | 2.44 µM (inactive) | 0.0889 µM (active) | 0.791 µM (active) | 0.0255 µM (active) | 0.0933 µM (active) | –
O=C(O)C1OC1C(=O)O (stereo unspecified) | > 100 µM (inactive) | > 100 µM (inactive) | > 100 µM (inactive) | > 100 µM (inactive) | > 100 µM (inactive) | > 100 µM (inactive) | > 100 µM (inactive) | > 100 µM (inactive) | > 100 µM (inactive) | > 100 µM (inactive) | – | – | > 100 µM (inactive) | > 100 µM (inactive) | > 100 µM (inactive) | > 100 µM (inactive) | > 100 µM (inactive) | > 100 µM (inactive) | – | > 100 µM (inactive)
CC[C@H](C)C1=C(OC(C)=O)[N@+]2([O-])Oc3ccc(-c4c(O)c(O)c(-c5ccc(OC(C)=O)cc5)c(OC(C)=O)c4OC(C)=O)cc3O[C@]2([C@@H](C)CC)C(=O)N1O | 14.1 µM (inactive) | 18.8 µM (inactive) | 44.5 µM (inactive) | 10.8 µM (inactive) | 29.3 µM (inactive) | 20.6 µM (inactive) | 17.5 µM (inactive) | 10.6 µM (inactive) | 11.1 µM (inactive) | 22.9 µM (inactive) | 20.6 µM (inactive) | 14.2 µM (inactive) | > 50 µM (inactive) | 16.4 µM (inactive) | 15.1 µM (inactive) | 24.3 µM (inactive) | 35 µM (inactive) | 11.7 µM (inactive) | 13.2 µM (inactive) | –
CCCCCCCCP(=O)(O)OP(=O)(O)OCC1OC(n2ccc(N)nc2=O)C(O)C1O (stereo unspecified) | > 100 µM (inactive) | > 100 µM (inactive) | – | > 100 µM (inactive) | > 100 µM (inactive) | > 100 µM (inactive) | > 100 µM (inactive) | > 100 µM (inactive) | > 100 µM (inactive) | > 100 µM (inactive) | > 100 µM (inactive) | > 100 µM (inactive) | > 100 µM (inactive) | > 100 µM (inactive) | > 100 µM (inactive) | > 100 µM (inactive) | > 100 µM (inactive) | > 100 µM (inactive) | > 100 µM (inactive) | > 100 µM (inactive)
COC1=CC(=O)C(O)=C(C[C@@]2(C)[C@@H]3CCC[C@H](COC(=O)CCCCCNC(=O)OC(C)(C)C)[C@@]3(C)CC[C@@H]2C)C1=O | > 10 µM (inactive) | 3.59 µM (inactive) | > 10 µM (inactive) | 6.55 µM (inactive) | 4.52 µM (inactive) | > 10 µM (inactive) | > 10 µM (inactive) | 3.05 µM (inactive) | > 10 µM (inactive) | > 10 µM (inactive) | > 10 µM (inactive) | – | > 10 µM (inactive) | 3.77 µM (inactive) | 4.45 µM (inactive) | 3.9 µM (inactive) | 6.47 µM (inactive) | 3.86 µM (inactive) | 3.1 µM (inactive) | –
CC(C)(C)c1cc(C(C)(C)C)c2sc(=O)oc2c1O | 16.4 µM (inactive) | 13.2 µM (inactive) | 17.1 µM (inactive) | 12.9 µM (inactive) | 16.4 µM (inactive) | 14.1 µM (inactive) | 14 µM (inactive) | 13.7 µM (inactive) | 13.6 µM (inactive) | 18.5 µM (inactive) | 14.7 µM (inactive) | 16.1 µM (inactive) | 15.5 µM (inactive) | 14.4 µM (inactive) | 6.14 µM (inactive) | 14.2 µM (inactive) | 11.6 µM (inactive) | 10.1 µM (inactive) | 8.26 µM (inactive) | –
O=C(c1ccccc1)c1ccc2c(c1)NC(=O)c1ccccc1SSc1ccccc1C(=O)N2 | > 100 µM (inactive) | > 100 µM (inactive) | > 100 µM (inactive) | > 100 µM (inactive) | > 100 µM (inactive) | > 100 µM (inactive) | > 100 µM (inactive) | > 100 µM (inactive) | > 100 µM (inactive) | > 100 µM (inactive) | > 100 µM (inactive) | > 100 µM (inactive) | > 100 µM (inactive) | > 100 µM (inactive) | > 100 µM (inactive) | > 100 µM (inactive) | > 100 µM (inactive) | > 100 µM (inactive) | > 100 µM (inactive) | –
CCOC(=O)N1CCN(c2c(C)nc(C)nc2O)CC1 | > 100 µM (inactive) | > 100 µM (inactive) | > 100 µM (inactive) | > 100 µM (inactive) | > 100 µM (inactive) | > 100 µM (inactive) | > 100 µM (inactive) | > 100 µM (inactive) | > 100 µM (inactive) | – | > 100 µM (inactive) | > 100 µM (inactive) | – | > 100 µM (inactive) | > 100 µM (inactive) | > 100 µM (inactive) | > 100 µM (inactive) | > 100 µM (inactive) | > 100 µM (inactive) | > 100 µM (inactive)
COP(=O)(OC)[C@@](O)(c1ccccc1)[C@@H](O)[C@@H](O)c1ccccc1 | 64.6 µM (inactive) | > 100 µM (inactive) | > 100 µM (inactive) | 29.3 µM (inactive) | > 100 µM (inactive) | > 100 µM (inactive) | 17.8 µM (inactive) | 37.4 µM (inactive) | > 100 µM (inactive) | > 100 µM (inactive) | > 100 µM (inactive) | 33.7 µM (inactive) | > 100 µM (inactive) | > 100 µM (inactive) | > 100 µM (inactive) | 88.5 µM (inactive) | > 100 µM (inactive) | – | – | –
CN(C)C(=S)N/N=C\C(=N/NC(=S)N(C)C)c1ccccc1 | 7.33 µM (inactive) | 5.31 µM (inactive) | 4.23 µM (inactive) | 3.52 µM (inactive) | 4.57 µM (inactive) | 15 µM (inactive) | 9.02 µM (inactive) | 3.15 µM (inactive) | 5.74 µM (inactive) | > 30.9 µM (inactive) | – | 10.1 µM (inactive) | 3.96 µM (inactive) | 9.84 µM (inactive) | 1.28 µM (inactive) | 3.96 µM (inactive) | 3.69 µM (inactive) | 4.68 µM (inactive) | > 100 µM (inactive) | 7.53 µM (inactive)
